Measured values taken from US9862704B2, “Oxindole derivatives carrying an amine-substituted piperidyl-acetidinyl substituent and use thereof for treating vasopressine-related diseases” (AbbVie Deutschland GmbH & Co. KG, priority 2013, dated 2018).
pKi: −log10 of the molar value.

Columns and labels:
[1] = target: T1, human vasopressin V1b receptor (Homo sapiens, UniProt P47901); experiment: biochemical
T1 sequence (P47901 1-424): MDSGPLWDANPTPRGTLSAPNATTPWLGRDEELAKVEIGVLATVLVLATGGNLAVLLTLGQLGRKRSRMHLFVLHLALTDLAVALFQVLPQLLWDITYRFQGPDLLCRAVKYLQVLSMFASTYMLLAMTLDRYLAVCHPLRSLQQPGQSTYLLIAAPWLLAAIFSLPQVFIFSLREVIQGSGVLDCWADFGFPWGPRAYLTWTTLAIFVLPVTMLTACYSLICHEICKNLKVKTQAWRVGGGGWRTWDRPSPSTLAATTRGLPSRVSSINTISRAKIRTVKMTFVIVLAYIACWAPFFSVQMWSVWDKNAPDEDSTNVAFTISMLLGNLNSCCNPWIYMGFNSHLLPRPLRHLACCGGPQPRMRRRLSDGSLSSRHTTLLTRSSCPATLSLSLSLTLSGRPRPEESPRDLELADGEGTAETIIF

[2] = target: human vasopressin V1a receptor (Homo sapiens, UniProt P37288); experiment: Vasopressin V1a receptor binding assay; conditions: selectivity quotient, human V1a vs human V1b
human vasopressin V1a receptor, sequence (P37288 whole entry): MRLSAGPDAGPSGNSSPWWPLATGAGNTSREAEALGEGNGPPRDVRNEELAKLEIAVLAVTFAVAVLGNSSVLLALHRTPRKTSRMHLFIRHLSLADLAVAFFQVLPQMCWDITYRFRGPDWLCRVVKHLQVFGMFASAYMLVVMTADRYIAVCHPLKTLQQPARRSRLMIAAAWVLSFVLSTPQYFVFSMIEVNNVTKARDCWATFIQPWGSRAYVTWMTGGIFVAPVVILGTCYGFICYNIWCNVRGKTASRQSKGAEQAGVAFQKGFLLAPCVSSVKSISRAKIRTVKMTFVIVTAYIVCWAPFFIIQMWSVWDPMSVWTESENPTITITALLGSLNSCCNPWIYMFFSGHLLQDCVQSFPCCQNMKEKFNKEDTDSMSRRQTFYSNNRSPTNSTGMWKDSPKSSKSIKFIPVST

| SMILES | pKi [1] | Ki(hV1a)/Ki(hV1b) [2] |
| --- | --- | --- |
| CCOc1ncccc1[C@]1(NC(=O)N2CC(N3CCC(N4CCCCC4)CC3)C2)C(=O)N(S(=O)(=O)c2ccc(OC)cc2OC)c2ccc(C#N)cc21 [Example 1, N-[(3S)-5-cyano-1-(2,4-dimethoxyphenyl)sulfonyl-3-(2-ethoxy-3-pyridyl)-2-oxoindolin-3-yl]-3-[4-(1-piperidyl)-1-piperidyl]azetidine-1-carboxamide] | > 9.00 | +++ (>75) |
| CCOc1ncccc1[C@]1(NC(=O)N2CC(N3CCC(N(C)C)CC3)C2)C(=O)N(S(=O)(=O)c2ccc(OC)cc2OC)c2ccc(C#N)cc21 [Example 2, (S)—N-(5-cyano-1-((2,4-dimethoxyphenyl)sulfonyl)-3-(2-ethoxypyridin-3-yl)-2-oxoindolin-3-yl)-3-(4-(dimethylamino)piperidin-1-yl)azetidine-1-carboxamide] | 8.00 to 9.00 | +++ (>75) |
| CCOc1ncccc1[C@]1(NC(=O)N2CC(N3CCC(N(CC)CC)CC3)C2)C(=O)N(S(=O)(=O)c2ccc(OC)cc2OC)c2ccc(C#N)cc21 [Example 3, (S)—N-(5-cyano-1-((2,4-dimethoxyphenyl)sulfonyl)-3-(2-ethoxypyridin-3-yl)-2-oxoindolin-3-yl)-3-(4-(diethylamino)piperidin-1-yl)azetidine-1-carboxamide] | 8.00 to 9.00 | +++ (>75) |
| CCOc1ncccc1[C@]1(NC(=O)N2CC(N3CCC(N4CCCC4)CC3)C2)C(=O)N(S(=O)(=O)c2ccc(OC)cc2OC)c2ccc(C#N)cc21 [Example 4, (S)—N-(5-cyano-1-((2,4-dimethoxyphenyl)sulfonyl)-3-(2-ethoxypyridin-3-yl)-2-oxoindolin-3-yl)-3-(4-(pyrrolidin-1-yl)piperidin-1-yl)azetidine-1-carboxamide] | 8.00 to 9.00 | +++ (>75) |
| COc1ccc(S(=O)(=O)N2C(=O)[C@@](NC(=O)N3CC(N4CCC(N5CCCCC5)CC4)C3)(c3cccnc3OC)c3cc(C#N)ccc32)c(OC)c1 [Example 5, (S)-3-([1,4′-bipiperidin]-1′-yl)-N-(5-cyano-1-((2,4-dimethoxyphenyl)sulfonyl)-3-(2-methoxypyridin-3-yl)-2-oxoindolin-3-yl)azetidine-1-carboxamide] | > 9.00 | +++ (>75) |

Results, then the compound that gave them:

| pKi [1] | Ki(hV1a)/Ki(hV1b) [2] | SMILES |
| --- | --- | --- |
| 8.00 to 9.00 | +++ (>75) | COc1ccc(S(=O)(=O)N2C(=O)[C@@](NC(=O)N3CC(N4CCC(N5CCCC5)CC4)C3)(c3cccnc3OC)c3cc(C#N)ccc32)c(OC)c1 [Example 6, (S)—N-(5-cyano-1-((2,4-dimethoxyphenyl)sulfonyl)-3-(2-methoxypyridin-3-yl)-2-oxoindolin-3-yl)-3-(4-(pyrrolidin-1-yl)piperidin-1-yl)azetidine-1-carboxamide] |
| 8.00 to 9.00 | +++ (>75) | CCOc1ncccc1[C@]1(NC(=O)N2CC(N3CCC(N4CCC4)CC3)C2)C(=O)N(S(=O)(=O)c2ccc(OC)cc2OC)c2ccc(C#N)cc21 [Example 7, (S)-3-(4-(azetidin-1-yl)piperidin-1-yl)-N-(5-cyano-1-((2,4-dimethoxyphenyl)sulfonyl)-3-(2-ethoxypyridin-3-yl)-2-oxoindolin-3-yl)azetidine-1-carboxamide] |
| > 9.00 |  | CCOc1ncccc1[C@]1(NC(=O)N2CC(N3CCC(N4CCCCC4)CC3)C2)C(=O)N(S(=O)(=O)c2ccc(OC)cc2OC)c2ccc(Cl)cc21 [Example 8, (S)-3-([1,4′-bipiperidin]-1′-yl)-N-(5-chloro-1-((2,4-dimethoxyphenyl)sulfonyl)-3-(2-ethoxypyridin-3-yl)-2-oxoindolin-3-yl)azetidine-1-carboxamide] |
| > 9.00 |  | CCOc1ncccc1[C@]1(NC(=O)N2CC(N3CCC(N4CCCC4)CC3)C2)C(=O)N(S(=O)(=O)c2ccc(OC)cc2OC)c2ccc(Cl)cc21 [Example 9, (S)—N-(5-chloro-1-((2,4-dimethoxyphenyl)sulfonyl)-3-(2-ethoxypyridin-3-yl)-2-oxoindolin-3-yl)-3-(4-(pyrrolidin-1-yl)piperidin-1-yl)azetidine-1-carboxamide] |
